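Results reflect a 48-hour exposure of cells in 96-well plates to compound at five concentrations. At the GI50, growth is halved.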 Activity calls are given as the source filed them. No stated cut-off is given here; in the data, active = GI50 up to about 1.1 µM and inactive = higher.
Columns and labels:
Test in all cases: DTP human tumour cell line panel, 48 h
[1] = test system: 786-0
[2] = test system: A498
[3] = test system: A549
[4] = test system: ACHN
[5] = test system: BT-549
[6] = test system: CAKI-1
[7] = test system: CCRF-CEM
[8] = test system: COLO 205
[9] = test system: DU-145
[10] = test system: HCC 2998
[11] = test system: HCT-116
[12] = test system: HCT-15
[13] = test system: HL-60
[14] = test system: HOP-62
[15] = test system: HOP-92
[16] = test system: HT-29
[17] = test system: Hs-578T
[18] = test system: K562
[19] = test system: KM12
[20] = test system: LOX IMVI
[21] = test system: M14
[22] = test system: MCF7
[23] = test system: MDA-MB-231
[24] = test system: MDA-MB-435
[25] = test system: MDA-N
[26] = test system: NCI-H226
[27] = test system: NCI-H23
[28] = test system: NCI-H460
[29] = test system: NCI/ADR-RES
[30] = test system: OVCAR-3
[31] = test system: OVCAR-4
[32] = test system: OVCAR-5
[33] = test system: OVCAR-8
[34] = test system: RPMI-8226
[35] = test system: RXF 393
[36] = test system: SF-268
[37] = test system: SF-295
[38] = test system: SF-539
[39] = test system: SK-MEL-28
[40] = test system: SK-MEL-2
[41] = test system: SK-MEL-5
[42] = test system: SK-OV-3
[43] = test system: SN12C
[44] = test system: SNB-19
[45] = test system: SNB-75
[46] = test system: SW-620
[47] = test system: T47D
[48] = test system: TK-10
[49] = test system: U-251
[50] = test system: UACC-257
[51] = test system: UACC-62
[52] = test system: UO-31
[53] = test system: EKVX
[54] = test system: IGROV-1
[55] = test system: MOLT-4
[56] = test system: Malme-3M
[57] = test system: NCI-H522
[58] = test system: PC-3

With `Nc1ncnc2c1ncn2-c1ccc([N+](=O)[O-])cn1` the GI50 [1] was > 100 µM (inactive), the GI50 [2] was > 100 µM (inactive) and the GI50 [3] was > 100 µM (inactive). For the same compound, the GI50 [4] was > 100 µM (inactive), the GI50 [5] was > 100 µM (inactive) and the GI50 [6] was > 100 µM (inactive). For the same compound, the GI50 [7] was > 100 µM (inactive), the GI50 [8] was > 100 µM (inactive) and the GI50 [9] was > 100 µM (inactive). The GI50 [10] was > 100 µM (inactive), the GI50 [11] was > 100 µM (inactive) and the GI50 [12] was greater than 100 µM. For the same compound, the GI50 [13] was > 100 µM (inactive), the GI50 [14] was > 100 µM (inactive) and the GI50 [15] was > 100 µM (inactive). The GI50 [16] was > 100 µM (inactive), the GI50 [17] was 61.9 µM (inactive) and the GI50 [18] was > 10 µM (inactive). The GI50 [19] was > 100 µM (inactive), the GI50 [20] was > 100 µM (inactive) and the GI50 [21] was > 100 µM (inactive). The GI50 [22] was > 100 µM (inactive), the GI50 [23] was > 100 µM (inactive) and the GI50 [24] was > 100 µM (inactive). For the same compound, the GI50 [25] was > 100 µM (inactive), the GI50 [26] was > 100 µM (inactive) and the GI50 [27] was > 100 µM (inactive). The GI50 [28] was > 100 µM (inactive), the GI50 [29] was > 100 µM (inactive) and the GI50 [30] was > 100 µM (inactive). For the same compound, the GI50 [31] was > 100 µM (inactive), the GI50 [32] was > 100 µM (inactive) and the GI50 [33] was > 100 µM (inactive). For the same compound, the GI50 [34] was > 100 µM (inactive), the GI50 [35] was > 100 µM (inactive) and the GI50 [36] was > 100 µM (inactive). The GI50 [37] was > 100 µM (inactive), the GI50 [38] was > 100 µM (inactive) and the GI50 [39] was > 100 µM (inactive). For the same compound, the GI50 [40] was > 100 µM (inactive), the GI50 [41] was > 100 µM (inactive) and the GI50 [42] was > 100 µM (inactive). For the same compound, the GI50 [43] was > 100 µM (inactive), the GI50 [44] was > 100 µM (inactive) and the GI50 [45] was 41.4 µM (inactive). For the same compound, the GI50 [46] was > 100 µM (inactive), the GI50 [47] was > 100 µM (inactive) and the GI50 [48] was > 100 µM (inactive). For the same compound, the GI50 [49] was > 100 µM (inactive), the GI50 [50] was > 100 µM (inactive) and the GI50 [51] was > 100 µM (inactive). For the same compound, the GI50 [52] was > 100 µM (inactive).

In the case of `CC(C)(C)OC(=O)NCCC1CNc2ccccc21` (stereo unspecified), the GI50 [1] is reported as > 100 µM (inactive), the GI50 [2] is reported as > 100 µM (inactive) and the GI50 [3] is reported as > 100 µM (inactive). For the same compound, the GI50 [4] was > 100 µM (inactive), the GI50 [5] was > 100 µM (inactive) and the GI50 [6] was > 100 µM (inactive). For the same compound, the GI50 [8] was > 100 µM (inactive), the GI50 [9] was > 100 µM (inactive) and the GI50 [53] was > 100 µM (inactive). For the same compound, the GI50 [10] was > 100 µM (inactive), the GI50 [11] was > 100 µM (inactive) and the GI50 [12] was greater than 100 µM. For the same compound, the GI50 [14] was > 100 µM (inactive), the GI50 [15] was 93.1 µM (inactive) and the GI50 [16] was > 100 µM (inactive). For the same compound, the GI50 [17] was > 100 µM (inactive), the GI50 [54] was > 100 µM (inactive) and the GI50 [18] was > 100 µM (inactive). The GI50 [19] was > 100 µM (inactive), the GI50 [21] was > 100 µM (inactive) and the GI50 [22] was > 100 µM (inactive). For the same compound, the GI50 [23] was > 100 µM (inactive), the GI50 [24] was > 100 µM (inactive) and the GI50 [25] was > 100 µM (inactive). The GI50 [55] was > 100 µM (inactive), the GI50 [56] was > 100 µM (inactive) and the GI50 [27] was > 100 µM (inactive). The GI50 [28] was > 100 µM (inactive), the GI50 [57] was > 100 µM (inactive) and the GI50 [29] was > 100 µM (inactive). For the same compound, the GI50 [30] was > 100 µM (inactive), the GI50 [31] was > 100 µM (inactive) and the GI50 [32] was > 100 µM (inactive). For the same compound, the GI50 [33] was > 100 µM (inactive), the GI50 [58] was > 100 µM (inactive) and the GI50 [34] was > 100 µM (inactive). For the same compound, the GI50 [35] was > 100 µM (inactive), the GI50 [36] was > 100 µM (inactive) and the GI50 [37] was > 100 µM (inactive). For the same compound, the GI50 [39] was > 100 µM (inactive), the GI50 [40] was > 100 µM (inactive) and the GI50 [41] was > 100 µM (inactive). For the same compound, the GI50 [42] was > 100 µM (inactive), the GI50 [44] was > 100 µM (inactive) and the GI50 [45] was > 100 µM (inactive). The GI50 [46] was > 100 µM (inactive), the GI50 [47] was > 100 µM (inactive) and the GI50 [48] was > 100 µM (inactive). The GI50 [49] was > 100 µM (inactive), the GI50 [50] was > 100 µM (inactive) and the GI50 [51] was > 100 µM (inactive). The GI50 [52] was > 100 µM (inactive).

`N#CC(Cc1ccccc1Br)N(CCC1=CCCCC1)C(c1ccccc1)c1ccccc1` (stereo unspecified) was tested, and the GI50 [1] was > 100 µM (inactive), the GI50 [2] was > 100 µM (inactive) and the GI50 [3] was 93.3 µM (inactive). For the same compound, the GI50 [4] was > 100 µM (inactive), the GI50 [5] was > 100 µM (inactive) and the GI50 [6] was > 100 µM (inactive). The GI50 [8] was 50.8 µM (inactive), the GI50 [9] was > 100 µM (inactive) and the GI50 [53] was 51.4 µM (inactive). For the same compound, the GI50 [10] was 18.6 µM (inactive), the GI50 [11] was 32.8 µM (inactive) and the GI50 [12] was 50.2 µM. For the same compound, the GI50 [14] was > 100 µM (inactive), the GI50 [15] was 29.7 µM (inactive) and the GI50 [16] was 32.9 µM (inactive). For the same compound, the GI50 [17] was > 100 µM (inactive), the GI50 [54] was 52.1 µM (inactive) and the GI50 [18] was 44.3 µM (inactive). For the same compound, the GI50 [19] was 64.9 µM (inactive), the GI50 [21] was 37.9 µM (inactive) and the GI50 [22] was 52.4 µM (inactive). The GI50 [23] was > 100 µM (inactive), the GI50 [24] was 30.4 µM (inactive) and the GI50 [25] was 41.4 µM (inactive). The GI50 [55] was 72.3 µM (inactive), the GI50 [56] was > 100 µM (inactive) and the GI50 [27] was 27.8 µM (inactive). For the same compound, the GI50 [28] was 57.3 µM (inactive), the GI50 [57] was 25.9 µM (inactive) and the GI50 [29] was > 100 µM (inactive). The GI50 [30] was 75.5 µM (inactive), the GI50 [31] was 94 µM (inactive) and the GI50 [32] was > 100 µM (inactive). For the same compound, the GI50 [33] was 76 µM (inactive), the GI50 [58] was > 100 µM (inactive) and the GI50 [34] was 31.7 µM (inactive). For the same compound, the GI50 [35] was 71.6 µM (inactive), the GI50 [36] was > 100 µM (inactive) and the GI50 [37] was 58.7 µM (inactive). The GI50 [39] was > 100 µM (inactive), the GI50 [40] was > 100 µM (inactive) and the GI50 [41] was 46 µM (inactive). The GI50 [42] was > 100 µM (inactive), the GI50 [44] was > 100 µM (inactive) and the GI50 [45] was > 100 µM (inactive). The GI50 [46] was 73.8 µM (inactive), the GI50 [47] was 38.3 µM (inactive) and the GI50 [48] was > 100 µM (inactive). For the same compound, the GI50 [49] was 83.8 µM (inactive), the GI50 [50] was 61.8 µM (inactive) and the GI50 [51] was 97.1 µM (inactive). For the same compound, the GI50 [52] was 83.2 µM (inactive).
